In patent publication US8877748B2, “Heterocyclic fused anthraquinone derivatives, manufacturing method and pharmaceutical composition using thereof” (National Defense Medical Center, priority 2012, dated 2014):

How the values were obtained:
SK-MEL-28 = test: NCI one-dose screening, melanoma SK-MEL-28; format: cell-based, human; conditions: SK-MEL-28, 10 μM
OVCAR-3 = test: NCI one-dose screening, ovarian cancer OVCAR-3; format: cell-based, human; conditions: OVCAR-3, 10 μM
TK-10 = test: NCI one-dose screening, renal cancer TK-10; format: cell-based, human; conditions: TK-10, 10 μM
SR = test: NCI one-dose screening, leukemia SR; format: cell-based, human; conditions: SR
BT-549 = test: NCI one-dose screening, breast cancer BT-549; format: cell-based, human; conditions: BT-549, 10 μM
MOLT-4 = test: NCI one-dose screening, leukemia MOLT-4; format: cell-based, human; conditions: MOLT-4, 10 μM
A549/ATCC = test: NCI one-dose screening, non-small cell lung cancer A549/ATCC; format: cell-based, human; conditions: A549/ATCC
MALME-3M = test: NCI one-dose screening, melanoma MALME-3M; format: cell-based, human; conditions: MALME-3M
HOP-62 = test: NCI one-dose screening, non-small cell lung cancer HOP-62; format: cell-based, human; conditions: HOP-62, 10 μM
SN12C = test: NCI one-dose screening, renal cancer SN12C; format: cell-based, human; conditions: SN12C
M14 = test: NCI one-dose screening, melanoma M14; format: cell-based, human; conditions: M14, 10 μM
OVCAR-8 = test: NCI one-dose screening, ovarian cancer OVCAR-8; format: cell-based, human; conditions: OVCAR-8, 10 μM
MDA-MB-468 = test: NCI one-dose screening, breast cancer MDA-MB-468; format: cell-based, human; conditions: MDA-MB-468, 10 μM
PRMI-8226 cell line = test: NCI one-dose screening, leukemia PRMI-8226; format: cell-based, human; conditions: RPMI-8226, 10 μM
HCT-116 = test: NCI one-dose screening, colon cancer HCT-116; format: cell-based, human; conditions: HCT-116, 10 μM
HOP-92 = test: NCI one-dose screening, non-small cell lung cancer HOP-92; format: cell-based, human; conditions: HOP-92, 10 μM

SMILES | Growth Percent (10 μM) (SK-MEL-28) [%] | Growth Percent (10 μM) (OVCAR-3) [%] | Growth Percent (10 μM) (TK-10) [%] | Growth Percent (10 μM) (SR) [%] | Growth Percent (10 μM) (BT-549) [%] | Growth Percent (10 μM) (MOLT-4) [%] | Growth Percent (10 μM) (A549/ATCC) [%] | Growth Percent (10 μM) (MALME-3M) [%] | Growth Percent (10 μM) (HOP-62) [%] | Growth Percent (10 μM) (SN12C) [%] | Growth Percent (10 μM) (M14) [%] | Growth Percent (10 μM) (OVCAR-8) [%] | Growth Percent (10 μM) (MDA-MB-468) [%] | Growth Percent (10 μM) (PRMI-8226 cell line) [%] | Growth Percent (10 μM) (HCT-116) [%] | Growth Percent (10 μM) (HOP-92) [%] | melting point [°C]
O=C1c2ccccc2C(=O)c2c1cc(N1CCCC1)c1nsnc21 [C7, 4-(pyrrolidine-1-yl)anthra-[2,1-c][1,2,5] thiadiazol-6,11-dione] | 99.46 | 86.97 | 141.01 | 84.23 | 86.83 | 92.84 | 63.51 | 70.73 | 79.16 | 89.82 | 94.61 | 82.12 | 84.32 | 76.16 | 78.67 | – | –
CN(C)CCNc1cc2c(c3nsnc13)C(=O)c1ccccc1C2=O [C8] | −50.60 | −38.62 | −35.59 | −49.98 | −99.43 | −41.28 | −60.09 | −85.22 | −67.97 | −95.78 | −96.08 | −28.91 | −62.81 | −29.81 | −2.07 | −25.30 | –
CC(C)Sc1cc2c(c3nsnc13)C(=O)c1ccccc1C2=O [C18, 4-(isopropylthio)anthra[2,1-c][1,2,5] thiadiazol-6,11-dione] | −8.32 | −60.32 | 30.33 | −47.97 | 10.84 | −54.56 | −8.14 | −86.04 | 13.18 | −28.62 | −31.54 | −22.64 | −78.76 | −38.03 | −36.70 | – | 193 to 194
Cc1ccc(Nc2cc3c(c4nsnc24)C(=O)c2ccccc2C3=O)cc1 [C64, 4-(p-tolylamino)anthra[2,1-c][1,2,5] thiadiazol-6,11-dione] | 74.97 | 57.92 | 95.15 | 26.12 | 76.36 | 12.86 | 56.25 | 78.41 | 65.10 | 74.58 | 76.72 | 53.96 | 58.18 | 21.59 | 31.32 | – | –
